Experimental findings from patent US11332512B2, “Peptides and combination of peptides for use in immunotherapy against various tumors” (Immatics Biotechnologies GmbH, priority 2015, dated 2022) are described below.

Assay [1] concerns CD8+ T cells. As to the kind of experiment: In vitro immunogenicity: T-cell priming with aAPCs loaded with peptide/MHC and anti-CD28, pMHC multimer readout. The class given is cell-based, human. To be noted: percentage of positive wells among evaluable, HLA-A*02 restricted peptides. The source says:
In order to obtain information regarding the immunogenicity of the TUMAPs of the present invention, the inventors performed investigations using an in vitro T-cell priming assay based on repeated stimulations of CD8+ T cells with artificial antigen presenting cells (aAPCs) loaded with peptide/MHC complexes and anti-CD28 antibody.
In order to perform in vitro stimulations by artificial antigen presenting cells loaded with peptide-MHC complex (pMHC) and anti-CD28 antibody, the inventors first isolated CD8+ T cells from fresh HLA-A*02 leukapheresis products via positive selection using CD8 microbeads (Miltenyi Biotec, Bergisch-Gladbach, Germany) of healthy donors obtained from the University clinics Mannheim, Germany, after informed consent. PBMCs and isolated CD8+ lymphocytes were incubated in T-cell medium (TCM) until use consisting of RPMI-Glutamax (Invitrogen, Karlsruhe, Germany) supplemented with 10% heat inactivated human AB serum (PAN-Biotech, Aidenbach, Germany), 100 U/ml Penicillin/100 μg/ml Streptomycin (Cambrex, Cologne, Germany), 1 mM sodium pyruvate (CC Pro, Oberdorla, Germany), 20 μg/ml Gentamycin (Cambrex). 2.5 ng/ml IL-7 (PromoCell, Heidelberg, Germany) and 10 U/ml IL-2 (Novartis Pharma, Nürnberg, Germany) were also added to the TCM at this step. Generation of pMHC/anti-CD28 coated beads, T-cell stimulations and readout was performed in a highly defined in vitro system using four different pMHC molecules per stimulation condition and 8 different pMHC molecules per readout condition.
The purified co-stimulatory mouse IgG2a anti human CD28 Ab 9.3 (Jung et al., 1987) was chemically biotinylated using Sulfo-N-hydroxysuccinimidobiotin as recommended by the manufacturer (Perbio, Bonn, Germany). Beads used were 5.6 μm diameter streptavidin coated polystyrene particles (Bangs Laboratories, Illinois, USA).
pMHC used for positive and negative control stimulations were A*0201/MLA-001 (peptide […] (SEQ ID NO. 289) from modified Melan-A/MART-1) and A*0201/DDX5-001 ([…] from DDX5, SEQ ID NO. 290), respectively.
800.000 beads/200 μl were coated in 96-well plates in the presence of 4×12.5 ng different biotin-pMHC, washed and 600 ng biotin anti-CD28 were added subsequently in a volume of 200 μl. Stimulations were initiated in 96-well plates by co-incubating 1×10^6 CD8+ T cells with 2×10^5 washed coated beads in 200 μl TCM supplemented with 5 ng/ml IL-12 (PromoCell) for 3 days at 37° C. Half of the medium was then exchanged by fresh TCM supplemented with 80 U/ml IL-2 and incubating was continued for 4 days at 37° C. This stimulation cycle was performed for a total of three times. For the pMHC multimer readout using 8 different pMHC molecules per condition, a two-dimensional combinatorial coding approach was used as previously described (Andersen et al., 2012) with minor modifications encompassing coupling to 5 different fluorochromes. Finally, multimeric analyses were performed by staining the cells with Live/dead near IR dye (Invitrogen, Karlsruhe, Germany), CD8-FITC antibody clone SK1 (BD, Heidelberg, Germany) and fluorescent pMHC multimers. For analysis, a BD LSRII SORP cytometer equipped with appropriate lasers and filters was used. Peptide specific cells were calculated as percentage of total CD8+ cells. Evaluation of multimeric analysis was done using the FlowJo software (Tree Star, Oregon, USA). In vitro priming of specific multimer+CD8+ lymphocytes was detected by comparing to negative control stimulations.

Assay [2] deals with HLA-A*02:01 (Homo sapiens, UniProt P04439, D140Y/D185E/D98H/E176V/E277Q/G131W/G231S/I119V/I121R/I166T/I218V/L300P/L318F/N151K/N90K/P208A/P217A/Q86G/Q94H/R138H/R169H/T345S). The assay is described as follows: MHC binding assay: UV-ligand exchange with beta2m ELISA (peptide exchange yield). Conditions: binding to HLA-A*02:01, β2m ELISA. Put shortly:
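Binding capacity is expressed as the yield of UV-mediated ligand exchange, reflecting how well each peptide stabilizes peptide-receptive MHC. Stabilized complexes are read out by anti-β2m HRP ELISA (450 nm) after streptavidin capture, with refolded MLA-001 monomer standards for quantitation.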
(An ELISA detects its analyte on a solid surface through an enzyme-linked reagent.)

Turning to “233 (SLFESLEYL; listed as Homo sapiens) [compound 233]”, the “Wells positive [%]” value in assay [1] is “+ (<20% = +)”. In addition, the “Peptide exchange (MHC class I binding score, peptide exchange yield)” value (shortened to “Peptide exchange”) in assay [2] is listed as “+++ (= ≥50% = +++)”.
With “236 (KMSELQTYV; listed as Homo sapiens) [compound 236]”, the “Wells positive [%]” value in assay [1] was “+ (<20% = +)”. In addition, the “Peptide exchange” value in assay [2] is “+++ (= ≥50% = +++)”.
On the same counts, the results for “242 (KLQEEIPVL; listed as Homo sapiens) [compound 242]” are “+ (<20% = +)” and “+++ (= ≥50% = +++)”.
The corresponding values for “246 (ALAGIVTNV; listed as Homo sapiens) [compound 246]” are “+ (<20% = +)” and “+++ (= ≥50% = +++)”.
For the substance “255 (FLMKNSDLYGA; listed as Homo sapiens) [compound 255]”, the “Wells positive [%]” value in assay [1] is “+ (<20% = +)”. In assay [2], the “Peptide exchange” value is “+++ (= ≥50% = +++)”.
As to “257 (KLIDHQGLYL; listed as Homo sapiens) [compound 257]”, the “Wells positive [%]” value in assay [1] is recorded as “+ (<20% = +)”. Also, the “Peptide exchange” value in assay [2] is “+++ (= ≥50% = +++)”.
On the same counts, the results for “260 (ALNESLVEC; listed as Homo sapiens) [compound 260]” are “+ (<20% = +)” and “+++ (= ≥50% = +++)”.
On to “263 (SIIEYLPTL; listed as Homo sapiens) [compound 263]”, for which, in assay [1], the “Wells positive [%]” value is “+ (<20% = +)”. Besides, in assay [2], the “Peptide exchange” value was “+++ (= ≥50% = +++)”.
On the same counts, the results for “267 (YLLDMPLWYL; listed as Homo sapiens) [compound 267]” are “+ (<20% = +)” and “+++ (= ≥50% = +++)”.
